Results reported in PubChem BioAssay (NCI).
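Five concentrations, 48 hours, 96-well plates. TGI is the concentration that stops growth completely.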

Assays:
Test in all cases: inhibition of tumour cell growth, NCI panel, 48 h
786-0 renal = tested on: 786-0 renal
A498 renal = tested on: A498 renal
A549 NSCLC = tested on: A549 NSCLC
BT-549 breast = tested on: BT-549 breast
CAKI-1 renal = tested on: CAKI-1 renal
CCRF-CEM leukemia = tested on: CCRF-CEM leukemia
COLO 205 colon = tested on: COLO 205 colon
DU-145 prostate = tested on: DU-145 prostate
EKVX NSCLC = tested on: EKVX NSCLC
HCC-2998 colon = tested on: HCC-2998 colon
HCT-116 colon = tested on: HCT-116 colon
HCT-15 colon = tested on: HCT-15 colon
HL-60(TB) leukemia = tested on: HL-60(TB) leukemia
HS 578T breast = tested on: HS 578T breast
HT29 colon = tested on: HT29 colon
K-562 leukemia = tested on: K-562 leukemia
KM12 colon = tested on: KM12 colon
LOX IMVI melanoma = tested on: LOX IMVI melanoma
M14 melanoma = tested on: M14 melanoma
MALME-3M melanoma = tested on: MALME-3M melanoma
MCF7 breast = tested on: MCF7 breast
MDA-MB-231 breast = tested on: MDA-MB-231 breast
MDA-MB-435 = tested on: MDA-MB-435
MDA-N = tested on: MDA-N
MOLT-4 leukemia = tested on: MOLT-4 leukemia
NCI-H226 lung = tested on: NCI-H226 lung
NCI-H23 lung = tested on: NCI-H23 lung
NCI-H460 lung = tested on: NCI-H460 lung
NCI-H522 lung = tested on: NCI-H522 lung
NCI/ADR-RES ovarian = tested on: NCI/ADR-RES ovarian
OVCAR-3 ovarian = tested on: OVCAR-3 ovarian
OVCAR-4 ovarian = tested on: OVCAR-4 ovarian
OVCAR-5 ovarian = tested on: OVCAR-5 ovarian
OVCAR-8 ovarian = tested on: OVCAR-8 ovarian
PC-3 prostate = tested on: PC-3 prostate
RPMI-8226 leukemia = tested on: RPMI-8226 leukemia
RXF 393 renal = tested on: RXF 393 renal
SF-268 CNS = tested on: SF-268 CNS
SF-539 CNS = tested on: SF-539 CNS
SK-MEL-2 melanoma = tested on: SK-MEL-2 melanoma
SK-MEL-28 melanoma = tested on: SK-MEL-28 melanoma
SK-MEL-5 melanoma = tested on: SK-MEL-5 melanoma
SK-OV-3 ovarian = tested on: SK-OV-3 ovarian
SN12C renal = tested on: SN12C renal
SNB-19 CNS = tested on: SNB-19 CNS
SNB-75 CNS = tested on: SNB-75 CNS
SR leukemia = tested on: SR leukemia
SW-620 colon = tested on: SW-620 colon
T-47D breast = tested on: T-47D breast
TK-10 renal = tested on: TK-10 renal
U251 CNS = tested on: U251 CNS
UACC-257 melanoma = tested on: UACC-257 melanoma
UACC-62 melanoma = tested on: UACC-62 melanoma
UO-31 renal = tested on: UO-31 renal

Measured: TGI

O=c1[nH][nH]c(=O)n1Cc1cccc(Cn2c(=O)[nH][nH]c2=O)c1
> 100 µM: all assays above
